Experimental data: patent US4233310A, “Antiarteriosclerotic N-(mercaptoacyl)-histidines” (Santen Pharmaceutical Co., Ltd., priority 1976, dated 1980)

Key:
[1] = Acute toxicity (LD50, intraperitoneal); conditions: rat, in vivo, ip, 5% solution pH 7.0, 7-day observation, Litchfield-Wilcoxon method
Procedure: ddy Strain male rats, 4 weeks of age, weighing 18-20 g were placed in a room of constant temperature and humidity (24°±1° C., 55+5%) and fed freely a pellet diet (CE-2, made by Clea Japan Inc.) and water for one week. Out of them, rats showing normal growth were selected for the experiment.
N-(3-mercaptopropionyl)-L-histidine was added to physiological saline, and was neutralized to pH 7.0 with 4 N sodium hydroxide a 5% solution of this solution was used as the test solution, being administered intraperitoneally to the rats.

[2] = Hypolipid action in rats fed 2% cholesterol-containing diet (serum and liver lipids); format: in vivo, Wistar strain male rats; conditions: 100 mg/kg orally twice a day for one week; for Liver lipid: Cholesterol content / Liver lipid: Phospholipid content / Liver lipid: Triglyceride content / Serum lipid: Cholesterol content / Serum lipid: Phospholipid content / Serum lipid: Triglyceride content: fasted 16 hours, mean ± standard; for Liver lipid: Cholesterol % / Liver lipid: Phospholipid % / Liver lipid: Triglyceride % / Serum lipid: Cholesterol % / Serum lipid: Phospholipid % / Serum lipid: Triglyceride %: % of control (control = 100)
Procedure: (§1) Pharmacological study (Hypolipid action)
(§2) A 2% aqueous solution of N-(mercaptoacetyl)-L-histidine and N-(3-mercaptopropionyl)-L-histidine, previously neutralized to pH 7.0 with sodium hydroxide, was administered orally to Wistar strain male rats at a dose of 100 mg/kg twice a day for one week. After the final administration of the test solution, the rats were fasted for 16 hours. Cholesterol, triglyceride and phospholipid levels in serum and liver were determined. The rats were divided into two groups. One group was fed a stock diet, and the other a 2% cholesterol-containing diet.
Group fed with cholesterol containing diet

[3] = Hypolipid action in rats fed stock diet (serum and liver lipids); format: in vivo, Wistar strain male rats; conditions: 100 mg/kg orally twice a day for one week; for Liver lipid: Cholesterol content / Liver lipid: Phospholipid content / Liver lipid: Triglyceride content / Serum lipid: Cholesterol content / Serum lipid: Phospholipid content / Serum lipid: Triglyceride content: fasted 16 hours, mean ± standard; for Liver lipid: Cholesterol % / Liver lipid: Phospholipid % / Liver lipid: Triglyceride % / Serum lipid: Cholesterol % / Serum lipid: Phospholipid % / Serum lipid: Triglyceride %: % of control (control = 100)
Procedure: as §1, §2
Group fed with stock diet

SMILES	Liver lipid: Cholesterol content [2] [mg/total liver weight]	Liver lipid: Phospholipid content [2] [mg/total liver weight]	Liver lipid: Triglyceride content [2] [mg/total liver weight]	Serum lipid: Cholesterol content [2] [mg/dL]	Serum lipid: Phospholipid content [2] [mg/dL]	Serum lipid: Triglyceride content [2] [mg/dL]	Liver lipid: Cholesterol % [2] [%]	Liver lipid: Phospholipid % [2] [%]	Liver lipid: Triglyceride % [2] [%]	Serum lipid: Cholesterol % [2] [%]	Serum lipid: Phospholipid % [2] [%]	Serum lipid: Triglyceride % [2] [%]	Liver lipid: Cholesterol content [3] [mg/total liver weight]	Liver lipid: Phospholipid content [3] [mg/total liver weight]	Liver lipid: Triglyceride content [3] [mg/total liver weight]	Serum lipid: Cholesterol content [3] [mg/dL]	Serum lipid: Phospholipid content [3] [mg/dL]	Serum lipid: Triglyceride content [3] [mg/dL]	Liver lipid: Cholesterol % [3] [%]	Liver lipid: Phospholipid % [3] [%]	other results
O=C(CCS)N[C@@H](Cc1c[nH]cn1)C(=O)O [Compound 2, N-(3-mercaptopropionyl)-L-histidine]	60.3 ± 4.0	116.4 ± 4.2	17.1 ± 1.5	246.9 ± 27.8	173.9 ± 7.0	79.2 ± 4.9	96.0	96.4	98.3	81.4	85.5	69.7	18.9 ± 0.4	163.6 ± 1.7	30.8 ± 4.5	45.4 ± 0.4	93.4 ± 4.8	49.5 ± 5.5	85.9	83.8	LD50 at 168 h [1]: 4040 mg/kg; Liver lipid: Triglyceride % [3]: 77.6%; Serum lipid: Cholesterol % [3]: 71.4%; Serum lipid: Phospholipid % [3]: 82.4%; Serum lipid: Triglyceride % [3]: 57.5%
O=C(CS)N[C@@H](Cc1c[nH]cn1)C(=O)O [Compound 1, N-(mercaptoacetyl)-L-histidine]	52.4 ± 3.6	112.6 ± 5.8	17.0 ± 1.4	269.5 ± 4.8	178.6 ± 9.8	81.4 ± 10.2	83.4	93.2	97.7	88.7	87.8	71.6	19.7 ± 0.8	175.1 ± 7.3	24.4 ± 2.0	53.2 ± 1.9	95.1 ± 3.2	56.0 ± 5.6	89.5	89.7	Liver lipid: Triglyceride % [3]: 61.5%; Serum lipid: Cholesterol % [3]: 83.6%; Serum lipid: Phospholipid % [3]: 83.9%; Serum lipid: Triglyceride % [3]: 65.0%
